{"source": "patent US11345756B2", "about": "“CCR3 inhibition for ocular angiogenesis and macular degeneration” (University of Kentucky Research Foundation, priority 2006, dated 2022)", "tested_on": "CNV (choroidal neovascularization)", "experiment": "Laser-induced CNV volume, confocal evaluation of isolectin B4 stained RPE-choroid flatmounts", "type": "in vivo", "conditions": "C57BL/6J mice, laser injury, blockade of CCR3 ligand by neutralizing antibody injected into the vitreous humor; compared to control antibodies, all Ps<0.001", "procedure": "Laser photocoagulation (532 nm, 200 mW, 100 ms, 75 μm) (OCULIGHT™ GL, Index Corporation) was performed (volume studies: 3/eye; protein analyses/flow cytometry: 12/eye) on both eyes of each animal to induce CNV (choroidal neovascularization). CNV volumes were measured by scanning laser confocal microscope (TCS SP, Leica) with 0.5% FITC-Griffonia simplicifolia Isolectin B4 (Vector Laboratories). CNV was induced by laser injury in C57BL/6J and Ccr3^−/− mice and volumes measured 7 days later by confocal evaluation of Griffonia simplicifolia Isolectin B4 staining of RPE-choroid flatmounts. Neutralizing antibodies (Ab) against CCR3, eotaxin (CCL-11), eotaxin-2 (CCL-24), RANTES, MCP-3 or control goat IgG or rat IgG2a were injected into the vitreous humor following injury.\nBecause the probability of each laser lesion developing CNV is influenced by the group to which it belongs, the mouse, the eye, and the laser spot, the mean lesion volumes were compared using a linear mixed model with a split plot repeated measures design. The whole plot factor was the genetic group to which the animal belonged while the split plot factor was the eye. Statistical significance was determined at the 0.05 level. Post hoc comparison of means was constructed with a Bonferroni adjustment for multiple comparisons."}
{"substance": "eotaxin", "values": [{"measurement": "suppression of CNV", "value": 45, "unit": "%"}]}
